# Values of other authors in patent US9663525B2, “Pyrazolopyrimidinyl inhibitors of ubiquitin-activating enzyme” (Millennium Pharmaceuticals, Inc., priority 2012, dated 2017).
# What was measured:
# [1] = system: mouse acute myeloid leukemia (AML model); details: cited from earlier work
# [2] = system: leukemia and myeloma cell lines; details: cited from earlier work
smiles,measurement,setting,value
O=C1NN(c2ccc(F)c(Cl)c2)C(=O)/C1=C\c1ccc([N+](=O)[O-])o1 [PYZD-4409],anti-tumor activity,[1],demonstrated anti-tumor activity
same,cell death,[2],induced cell death
